Results reported in patent US20220144812A1, “QUINOLINE DERIVATIVES AND THEIR USE FOR THE TREATMENT OF CANCER” (Epizyme, Inc., priority 2019, published 2022).
pIC50: −log10 of the molar value. Read-outs that look alike come from different tables or passages of the source.

Tests used:
[1] = tested on: 647V cells; experiment: High throughput proliferation (HTP) assay; type: cell-based; conditions: read-out: CREBBP HTP IC50
Method in brief: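 Exponentially growing 647V cells in DMEM with 15% FBS were treated in triplicate with increasing compound concentrations at 37° C, 5% CO2. Viable cell number was read by CellTiter-Glo luminescence on day 7; IC50 in micromolar.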

[2] = tested on: H3K18Ac in HB-CLS-2 cells; experiment: H3K18AC in-cell western (ICW) assay; type: cell-based; conditions: read-out: CREBBP ICW IC50
Method in brief: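 HB-CLS-2 cells seeded 16–24 hours before 2 hr compound treatment at 37° C, 5% CO2, then methanol-fixed. H3K18Ac detected with rabbit monoclonal primary (overnight, 4° C) and 800CW anti-rabbit secondary; DRAQ5 stained DNA. Plates imaged at 700 and 800 nm for integrated intensity; IC50 in μM.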

[3] = target: T1, CREBBP (1084-1701) (Homo sapiens, UniProt Q92793); experiment: Biochemical assay for CREBBP (1084-1701), SAMDI; conditions: read-out: CREBBP Biochemistry IC50
T1 construct: measured in the following biochemical assay using CREBBP (1084-1701); purchased
Method in brief: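 CREBBP (1084-1701) preincubated with compound 30 min at RT, then substrate mix (biotin-H3 11-25 K14R/K23R peptide, acetyl-CoA) added for 30 min at RT. Reaction stopped with formic acid, neutralised with sodium bicarbonate. Peptide acetylation read by SAMDI mass spectrometry to derive IC50.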

[4] = target: T2, EP300 (P300(1048-1664)) (Homo sapiens, UniProt Q09472); experiment: Biochemical assay for EP300, SAMDI; conditions: read-out: EP300 Biochemistry IC50
T2 construct: P300(1048-1664)
T2 sequence (Q09472 1048-1664): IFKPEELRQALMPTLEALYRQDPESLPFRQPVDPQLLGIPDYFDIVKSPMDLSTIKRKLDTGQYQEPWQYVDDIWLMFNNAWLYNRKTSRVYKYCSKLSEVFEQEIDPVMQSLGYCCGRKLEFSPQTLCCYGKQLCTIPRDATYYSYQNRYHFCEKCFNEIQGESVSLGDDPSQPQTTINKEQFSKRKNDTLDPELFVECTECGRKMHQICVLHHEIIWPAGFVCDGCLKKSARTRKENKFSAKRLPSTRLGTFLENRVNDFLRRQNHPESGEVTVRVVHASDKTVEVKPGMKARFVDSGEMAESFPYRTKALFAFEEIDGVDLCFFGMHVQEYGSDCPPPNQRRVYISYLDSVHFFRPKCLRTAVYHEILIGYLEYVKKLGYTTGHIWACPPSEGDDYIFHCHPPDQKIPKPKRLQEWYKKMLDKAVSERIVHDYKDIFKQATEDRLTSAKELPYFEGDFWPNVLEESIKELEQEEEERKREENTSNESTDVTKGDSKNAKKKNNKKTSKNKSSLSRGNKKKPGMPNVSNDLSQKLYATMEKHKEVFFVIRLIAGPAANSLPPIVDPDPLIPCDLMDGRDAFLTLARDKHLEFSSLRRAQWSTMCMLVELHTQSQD
Description: The following example describes materials and methods relating to a biochemical assay for EP300. IC50 values (micromolar (μM)) are summarized in Table 1, Table 2, and Table 3 under the column labeled: “EP300 Biochemistry IC50 (micromolar).”

[5] = Homo sapiens, 647-V, high throughput proliferation
[6] = Homo sapiens, 647-V, high throughput proliferation, 647V cells
[7] = H3K18Ac in-cell western, HB-CLS-2 cells

T1 sequence (Q92793 1084-1701): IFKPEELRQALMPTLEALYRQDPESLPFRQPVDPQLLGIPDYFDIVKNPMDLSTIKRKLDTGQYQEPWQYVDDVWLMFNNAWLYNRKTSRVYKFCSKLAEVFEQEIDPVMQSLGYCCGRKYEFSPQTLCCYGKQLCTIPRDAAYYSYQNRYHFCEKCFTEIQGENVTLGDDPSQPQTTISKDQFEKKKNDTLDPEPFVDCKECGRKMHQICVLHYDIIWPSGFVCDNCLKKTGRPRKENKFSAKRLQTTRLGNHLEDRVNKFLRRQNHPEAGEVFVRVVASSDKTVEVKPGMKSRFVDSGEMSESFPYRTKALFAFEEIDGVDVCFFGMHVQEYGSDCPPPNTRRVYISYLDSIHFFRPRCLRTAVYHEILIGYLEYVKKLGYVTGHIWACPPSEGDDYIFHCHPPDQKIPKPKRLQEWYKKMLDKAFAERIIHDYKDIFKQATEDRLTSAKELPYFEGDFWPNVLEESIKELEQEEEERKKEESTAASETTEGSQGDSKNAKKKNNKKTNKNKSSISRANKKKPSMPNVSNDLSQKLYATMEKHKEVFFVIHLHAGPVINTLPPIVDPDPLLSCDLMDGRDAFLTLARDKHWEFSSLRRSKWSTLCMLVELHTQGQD

| SMILES | pIC50 ([2]; H3K18Ac in-cell western) | pIC50 ([3]; SAMDI) | pIC50 ([4]; EP300, SAMDI) | pIC50 [2, 7] | pIC50 ([2]; 2 h, H3K18Ac in HB-CLS-2 cells, 2 hrs compound incubation) | pIC50 ([3]; Peptide #233, Acetyl-CoA, SAMDI mass spectrometry) | pIC50 ([4]; P300(1048-1664), Peptide #233, Ac-CoA, SAMDI mass spectrometry) | pIC50 [1, 5] | pIC50 [1, 6] | pIC50 ([1]; high throughput proliferation) | pIC50 ([1]; Homo sapiens, 647-V, 168 h, 647V cells, day 7, CellTiter-Glo) |
| --- | --- | --- | --- | --- | --- | --- | --- | --- | --- | --- | --- |
| CCn1ncc(CN(C)C(=O)c2nc(-c3ccc4cc[nH]c4c3)nc3ccc(Cl)cc23)c1C [Compound 67] | 6.11 | 6.55 | 6.60 |  |  |  |  | 6.26 |  |  |  |
| CCn1ncc(CN(C)C(=O)c2nc(-c3cn[nH]c3C)nc3ccc(Cl)cc23)c1C [Compound 100] | 5.68 | 4.96 | 5.20 |  |  |  |  | 5.80 |  |  |  |
| CCn1ncc(CN(C)C(=O)c2cc(-c3ccc(OCCO)c(C)n3)nc3ccc(Cl)cc23)c1C [Compound 45] | 6.41 | 7.13 | 7.12 |  |  |  |  | 6.42 |  |  |  |
| CCn1ncc(CN(C)C(=O)c2nc(-c3ccc(OCCO)c(OC)c3)nc3ccc(Cl)cc23)c1C [Compound 102] | 5.68 | 5.40 | 5.37 |  |  |  |  | 5.64 |  |  |  |
| CCn1ncc(CN(C)C(=O)c2nc(-c3cccc(Cl)c3)nc3c(CNC)cc(Cl)cc23)c1C [Compound 85] | 5.89 | 6.74 | 6.40 |  |  |  |  | 5.89 |  |  |  |
| CCn1ncc(CN(C)C(=O)c2nc(-c3ccc(OCCCNC)c(C)c3Cl)nc3ccc(Cl)cc23)c1C [Compound 2] | 7.47 | 7.66 | 8.30 |  |  |  |  | 7.77 |  |  |  |
| CCn1ncc(CN(C)C(=O)c2nc(-c3ccc(OCCN4CCCC4)cc3Cl)nc3ccc(Cl)cc23)c1C [Compound 40] | 6.46 | 6.96 | 6.89 |  |  |  |  | 6.66 |  |  |  |
| CCn1ncc(CN(C)C(=O)c2nc(-c3cc(C(=O)NCCN4CCCC4)[nH]n3)nc3ccc(Cl)cc23)c1C [Compound 80] | 5.92 | 5.92 | 6.16 |  |  |  |  | 5.85 |  |  |  |
| CCn1ncc(CN(C)C(=O)c2cc(-c3cn(CCNC)cn3)nc3ccc(Cl)cc23)c1C [Compound 73] | 6.00 | 6.09 | 6.44 |  |  |  |  |  |  | 5.89 |  |
| CCn1ncc(CN(C)C(=O)c2nc(-c3cc4n[nH]cc4cc3Cl)nc3ccc(Cl)cc23)c1C [Compound 7] | 7.11 | 8.02 | 8.28 |  |  |  |  | 7.18 |  |  |  |
| CCn1ncc(CN(C)C(=O)c2cc(-c3csc(CNC)n3)nc3ccc(Cl)cc23)c1C [Compound 138] | 5.23 | 4.92 | 5.28 |  |  |  |  |  |  | 5.08 |  |
| CCn1ncc(CN(C)C(=O)c2nc(-c3ccc(OCCNC(=O)OC(C)(C)C)c(Cl)c3)nc3ccc(Cl)cc23)c1C [Compound 117] | 5.52 | 6.57 | 5.37 |  |  |  |  | 5.62 |  |  |  |
| CCn1ncc(CN(C)C(=O)c2nc(-c3cc(Cl)c4c[nH]nc4c3)nc3ccc(COC)cc23)c1C [Compound 22] | 6.74 | 7.85 | 7.85 |  |  |  |  | 6.68 |  |  |  |
| CCn1ncc(CN(C)C(=O)c2nc(-c3cc(Cl)cc(NCCNC)c3)nc3ccc(Cl)cc23)c1C [Compound 12] | 6.96 | 7.89 | 8.46 |  |  |  |  | 7.49 |  |  |  |

More lines, main results first:

| pIC50 ([2]; H3K18Ac in-cell western) | pIC50 ([3]; SAMDI) | pIC50 ([4]; EP300, SAMDI) | pIC50 [2, 7] | pIC50 ([2]; 2 h, H3K18Ac in HB-CLS-2 cells, 2 hrs compound incubation) | pIC50 ([3]; Peptide #233, Acetyl-CoA, SAMDI mass spectrometry) | pIC50 ([4]; P300(1048-1664), Peptide #233, Ac-CoA, SAMDI mass spectrometry) | SMILES | pIC50 [1, 5] | pIC50 [1, 6] | pIC50 ([1]; high throughput proliferation) | pIC50 ([1]; Homo sapiens, 647-V, 168 h, 647V cells, day 7, CellTiter-Glo) |
| --- | --- | --- | --- | --- | --- | --- | --- | --- | --- | --- | --- |
| 6.83 | 7.32 | 7.77 |  |  |  |  | CCc1ncc(CN(C)C(=O)c2nc(-c3cc(C)nc(NCCNC)c3)nc3ccc(Cl)cc23)n1C [Compound 574] | 7.21 |  |  |  |
| 6.98 | 7.95 | 8.57 |  |  |  |  | CCc1ncc(CN(C)C(=O)c2cc(-c3cc(-c4ncc[nH]4)n(C)n3)nc3ccc(Cl)cc23)n1C [Compound 541] | 7.07 |  |  |  |
|  | 4.66 | 4.80 | 5.31 |  |  |  | CCn1ncc(CN(C)C(=O)c2cc(-c3ccc(N(C)CCNC)c(C)n3)nc3ccc(Cl)cc23)c1C [Compound 417] |  | 5.51 |  |  |
|  | 7.48 | 7.92 | 6.89 |  |  |  | CCn1ncc(CN(C)C(=O)c2nc(-c3cc(NC(=O)CNC)cc(OC)c3)nc3ccc(Cl)cc23)c1C [Compound 384] |  | 7.00 |  |  |
|  | 7.82 | 8.00 | 6.70 |  |  |  | CCn1ncc(CN(C)C(=O)c2cc(-c3ccc4c[nH]nc4n3)nc3ccc(Cl)cc23)c1C [Compound 386] |  | 6.51 |  |  |
| 6.03 | 6.78 | 7.22 |  |  |  |  | CCn1ncc(CN(C)C(=O)c2cc(-c3ccc(OCC(O)CNC)c(C)n3)nc3ccc(COC)cc23)c1C (centres unmarked) [Compound 496] | 6.16 |  |  |  |
| 5.85 | 5.59 | 6.00 |  |  |  |  | CCn1ncc(CN(C)C(=O)c2nc(-c3cc(C)c4c(c3)NC(=O)C4)nc3ccc(Cl)cc23)c1C [Compound 463] | 5.82 |  |  |  |
| 5.92 | 6.45 | 6.94 |  |  |  |  | CCn1ncc(CN(C)C(=O)c2nc(-c3cc4c(NC(C)=O)n[nH]c4cc3C)nc3ccc(Cl)cc23)c1C [Compound 455] | 6.26 |  |  |  |
| 6.61 | 7.27 | 6.55 |  |  |  |  | CCn1ncc(CN(C)C(=O)c2nc(-c3cc(C(F)(F)F)c4[nH]nc(N)c4c3)nc3ccc(Cl)cc23)c1C [Compound 618] | 6.15 |  |  |  |
| 5.31 | 7.00 | 6.33 |  |  |  |  | CCn1ncc(CN(C)C(=O)c2nc(-c3ccc4[nH]nnc4c3)nc3ccc(Cl)cc23)c1C [Compound 133] | 5.23 |  |  |  |
| 6.81 | 7.29 | 7.47 |  |  |  |  | CCc1ncc(CN(C)C(=O)c2cc(-c3ccc(NCCNC)c(F)n3)nc3ccc(Cl)cc23)n1C [Compound 565] | 6.71 |  |  |  |
|  | 5.07 | 5.39 | 5.49 |  |  |  | CCn1ncc(CN(C)C(=O)c2nc(-c3cc(C(=O)NC)nn3C)nc3ccc(Cl)cc23)c1C [Compound 391] |  | 5.51 |  |  |
| 5.02 | 4.47 | 4.89 |  |  |  |  | CCn1ncc(CN(C)C(=O)c2nc(-c3ccc(C(=O)NC)cc3)nc3ccc(Cl)cc23)c1C [Compound 156] | 5.02 |  |  |  |
| 5.33 | 5.26 | 5.59 |  |  |  |  | CCn1ncc(CN(C)C(=O)c2nc(-c3cccc(N)n3)nc3ccc(Cl)cc23)c1C [Compound 131] | 5.12 |  |  |  |
|  | 5.26 | 5.85 | 5.21 |  |  |  | CCn1ncc(CN(C)C(=O)c2cc(-c3cc(C)c(OCCNC)cn3)nc3ccc(Cl)cc23)c1C [Compound 410] |  | 5.55 |  |  |
|  |  |  |  | 4.70 | 4.30 | 4.30 | CCn1ncc(C(N(C)C(=O)c2cc(-c3ccc(NCCN(C)C)c(C)n3)nc3ccc(Cl)cc23)C(F)(F)F)c1C (centres unmarked) [Compound 639] |  |  |  | 5.66 |
| 5.08 | 5.27 | 5.05 |  |  |  |  | CCn1ncc(CN(C)C(=O)c2nc(-c3cn(CCNC)nc3C)nc3ccc(Cl)cc23)c1C [Compound 144] | 5.48 |  |  |  |
| 7.30 | 7.87 | 8.20 |  |  |  |  | CCn1ncc(CN(C)C(=O)c2nc(-c3cc(C)nc(N[C@@H]4CCNC4)c3)nc3ccc(Cl)cc23)c1C [Compound 552] | 7.14 |  |  |  |
| 5.03 | 4.46 | 4.59 |  |  |  |  | CCn1ncc(CN(C)C(=O)c2nc(-c3ccnc(NC)c3)nc3ccc(Cl)cc23)c1C [Compound 155] | 5.30 |  |  |  |
| 5.44 | 5.35 | 5.37 |  |  |  |  | CCn1ncc(CN(C)C(=O)c2cc(-c3ccc(OCC(=O)NC)c(OC)c3)nc3ccc(Cl)cc23)c1C [Compound 122] | 5.68 |  |  |  |
| 6.62 | 6.85 | 6.39 |  |  |  |  | CCc1ncc(CN(C)C(=O)c2cc(-c3ccc(NCCNC)c(C)n3)nc3ccc(Cl)cc23)o1 [Compound 560] | 6.35 |  |  |  |
